According to PMC6837341, “Evolutionarily conserved susceptibility of the mitochondrial respiratory chain to SDHI pesticides and its consequence on the impact of SDHIs on human cultured cells” (PLoS ONE, 2019):
pIC50: −log10 of the molar value. Read-outs that look alike come from different tables or passages of the source.

How the values were obtained:
Format in all cases: biochemical
[1] = molecular target: T1, glycerol-3-phosphate cytochrome c reductase (G3PDH+CIII) (Homo sapiens, UniProt P00156); test: Glycerol-3-phosphate cytochrome c reductase (GCCR) activity, freeze-thawed HEK cells
T1 construct: the pellets were permeabilized by two freeze-thaw cycles before enzyme assays; endogenous in cells; host or cells: HEK293, freeze-thawed cell pellets
Experimental: The cells were grown in T75 flasks using 10 ml Dulbecco’s modified Eagle's minimal essential medium (DMEM) either containing 1 or 4.5 g/l glucose, 4 mM glutamine (glutamax; Gibco Thermo Fisher Scientific, MA), 2 mM pyruvate and 200 μM uridine (permissive medium, thereafter referred as GlucoMax) or lacking glucose, pyruvate and uridine but containing 4 mM glutamine (nonpermissive medium, thereafter referred as MitoMax; S1 Table). All media were supplemented with 10% fetal calf serum and 100 U/mL each penicillin and streptomycin. HEK293 human embryonic kidney cells were cultured in DMEM containing 4.5 g/L glucose, 4 mM glutamine, 10% fetal calf serum, 200 μM uridine, 2 mM pyruvate, and 100 U/mL each penicillin and streptomycin [9]. Cell pellets (1,500 g for 5 min) were kept frozen (-80°C), and for biochemical studies, the pellets were permeabilized by two freeze-thaw cycles before enzyme assays.
(§1) RC enzyme activities were spectrophotometrically measured using a pseudo-double-wavelength spectrophotometer (Cary 60, Agilent). Malonate-sensitive succinate quinone dichlorophenolindophenol (DCPIP) reductase (SQDR), as an indicator of the activity of the isolated SDH enzyme (isolated CII), and glycerol-3-phosphate quinone DCPIP reductase (GQDR), as a measure of the activity of the isolated glycerol-3-phosphate dehydrogenase (G3PDH), were assayed as previously described. To study the effect of SDHIs on the RC, we had to take into consideration the fact that these inhibitors act through binding to quinone-binding sites in the RC. Accordingly, we observed that the extent of the inhibitory effects of these substances varies with the addition of exogenous quinones (Fig 1). […] With this aim, we measured the malonate-sensitive succinate cytochrome c reductase (SDH+CIII), glycerol-3-phosphate cytochrome c reductase (G3PDH+CIII) and antimycin-sensitive quinol cytochrome c reductase (CIII) as previously described.
(§2) The effects of eight different SDHIs (up to 500 μM; S2 Fig) were determined on four different biological materials. Because IC50 are known to be affected by the actual absolute activity of the tested enzyme, these IC50 were quantified using similar levels of SDH enzyme activity during the assay. IC50 values were determined using the AAT Bioquest IC50 calculator tool (https://www.aatbio.com/tools/ic50-calculator).

[2] = molecular target: T2, quinol cytochrome c reductase (CIII) (Apis mellifera, UniProt P34845); test: QCCR activity, honeybee crude mitochondria
T2 sequence (P34845 1-383): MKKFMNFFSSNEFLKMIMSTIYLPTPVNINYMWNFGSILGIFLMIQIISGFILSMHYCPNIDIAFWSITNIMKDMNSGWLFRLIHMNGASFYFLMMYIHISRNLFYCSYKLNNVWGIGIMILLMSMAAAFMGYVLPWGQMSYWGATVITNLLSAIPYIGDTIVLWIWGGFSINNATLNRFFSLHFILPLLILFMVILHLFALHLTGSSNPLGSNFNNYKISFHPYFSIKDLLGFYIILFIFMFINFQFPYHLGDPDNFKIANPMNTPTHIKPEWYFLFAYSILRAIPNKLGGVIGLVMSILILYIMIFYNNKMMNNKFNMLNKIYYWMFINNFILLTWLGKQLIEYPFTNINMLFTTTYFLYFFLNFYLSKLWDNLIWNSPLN
Experimental: A. mellifera individuals (n = 5) were a kind gift from Jacques Kemp (beekeeper; Saint-Rémy-lès-Chevreuse, Yvelines, France). Whole bodies of individuals frozen in dry ice, except heads, were homogenized using a 1 ml glass-glass Potter-Elvehjem homogenizer in an ice-cold medium consisting of 20 mM Tris (pH 7.2), 0.25 M sucrose, 40 mM KCl, 2 mM EGTA, and 1 mg/ml BSA. The homogenate was centrifuged at 1,500 g for 5 min. The mitochondria contained in the supernatant were spun down at 10,000 g for 10 min. The pellet of crude mitochondria was distributed as 20-μl aliquots and kept frozen at -80°C.
as §1, with “described.” for “described. To study the effect of SDHIs on the RC, we had to take into consideration the fact that these inhibitors act through binding to quinone-binding sites in the RC. Accordingly, we observed that the extent of the inhibitory effects of these substances varies with the addition of exogenous quinones (Fig 1).”
as §2

[3] = molecular target: T3, quinol cytochrome c reductase (CIII) (Botrytis cinerea, UniProt Q18ND9); test: QCCR activity, Botrytis cinerea mitochondria
T3 sequence (Q18ND9 1-391): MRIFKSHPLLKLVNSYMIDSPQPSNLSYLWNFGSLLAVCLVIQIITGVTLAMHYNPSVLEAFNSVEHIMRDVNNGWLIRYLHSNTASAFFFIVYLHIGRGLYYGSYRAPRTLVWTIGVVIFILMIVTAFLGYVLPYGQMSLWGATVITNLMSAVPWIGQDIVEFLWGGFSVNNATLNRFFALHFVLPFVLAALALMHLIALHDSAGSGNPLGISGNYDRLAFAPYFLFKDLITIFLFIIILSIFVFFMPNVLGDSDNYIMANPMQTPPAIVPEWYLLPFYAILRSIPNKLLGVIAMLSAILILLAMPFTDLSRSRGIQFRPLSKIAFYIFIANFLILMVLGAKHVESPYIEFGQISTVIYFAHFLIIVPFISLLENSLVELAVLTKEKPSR
Experimental: The mixed population of B. cinerea fungi used in this study was kindly provided by Dr. Joelle Dupont (Museum National d’Histoire Naturelle, Paris, France). Conidia from Botrytis cinerea were obtained from 15–30 d cultures grown on malt medium agar plates. Mycelial colonies were prepared by seeding conidia from 10 colonies in liquid medium (10 g of glucose, 2 g of KH2PO4, 0.5 g of MgSO47H2O, 1 g of (NH4)2SO4, 2 g of yeast extract and deionized water up to 1 l, pH 6.2). Incubation was performed at 23°C until hyphae totally covered the surface of the bottle. The hyphae (9-cm-diameter disks) were harvested, washed twice with refrigerated distilled water and finally with mitochondria extraction medium containing 20 mM Tris (pH 7.2), 0.25 M sucrose, 40 mM KCl, 2 mM EGTA, 1 mg/ml BSA, and no cysteine. The hyphae were suspended in 150 ml of extraction medium, cut in small pieces (1 cm^2) and then disrupted at high speed for 1×2 sec and at low speed for 2×3 sec using a MultiMoulinex mixer (Moulinex, France). The suspension of disrupted hyphae was then filtered through two layers of nylon cloth (clearance 150 μm). The cloth was washed with 50 ml of extraction medium. After low-speed centrifugation (700 g for 15 min), the mitochondria were collected at 10,000 g for 20 min. The pellet was suspended in 250 μl of extraction medium, aliquoted (± 30 μl) and kept frozen at -80°C.
as §1, with “described.” for “described. To study the effect of SDHIs on the RC, we had to take into consideration the fact that these inhibitors act through binding to quinone-binding sites in the RC. Accordingly, we observed that the extent of the inhibitory effects of these substances varies with the addition of exogenous quinones (Fig 1).”
as §2

[4] = Homo sapiens, freeze-thawed HEK cells, read-out: IC50 GCCR
[5] = CIII values only indicative, read-out: IC50 QCCR
[6] = read-out: IC50 QCCR, CIII values only indicative

Cc1nn(C)c(F)c1C(=O)Nc1ccccc1C(C)CC(C)C (stereo not drawn) [Penflufen, penflufen]
pIC50 [1, 4]: < 3.30 | pIC50 [2, 5]: < 3.30 | pIC50 [3, 5]: 3.36

Cn1cc(C(=O)Nc2ccc(F)cc2-c2ccc(Cl)c(Cl)c2)c(C(F)F)n1 [Bixafen, bixafen]
pIC50 [1, 4]: 4.68 | pIC50 [2, 5]: 5.24 | pIC50 [3, 5]: 4.65

CC(C)Oc1cccc(NC(=O)c2ccccc2C(F)(F)F)c1 [Flutolanil, flutolanil]
pIC50 [1, 4]: < 3.30 | pIC50 [2, 6]: < 3.30 | pIC50 [3, 6]: < 3.30

Cn1cc(C(=O)Nc2ccccc2-c2cc(F)c(F)c(F)c2)c(C(F)F)n1 [Fluxapyroxad, fluxapyroxad]
pIC50 [1, 4]: < 3.30 | pIC50 [2, 5]: 3.52 | pIC50 [3, 5]: 4.17

CC(C)C1C2CCC1c1c(NC(=O)c3cn(C)nc3C(F)F)cccc12 (stereo not drawn) [Isopyrazam, isopyrazam]
pIC50 [1, 4]: 4.29 | pIC50 [2, 5]: 4.06 | pIC50 [3, 5]: 4.85

CC(C)CC(C)c1sccc1NC(=O)c1cn(C)nc1C(F)(F)F (stereo not drawn) [Penthiopyrad, penthiopyrad]
pIC50 [1]: 3.68 | pIC50 [2, 6]: 3.57 | pIC50 [3, 6]: 3.98

O=C(Nc1ccccc1-c1ccc(Cl)cc1)c1cccnc1Cl [Boscalid, boscalid]
pIC50 [1]: < 3.30 | pIC50 [2, 6]: < 3.30 | pIC50 [3, 6]: < 3.30
